Data as given in patent US9815796B2 (Merck Sharp & Dohme Corp., priority 2013, dated 2017).

Columns and labels:
Rhesus PDE2A3 = Rhesus PDE2A3 (Macaca mulatta, UniProt B3VTJ2); assay: PDE2 fluorescence polarization (IMAP FP) inhibition assay, rhesus enzyme; type: biochemical, rhesus macaque; conditions: Rhesus PDE2, Lab B; read-out: Rhesus PDE2 Ki (nM) - Lab B
Outline: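 Rhesus PDE2A3 came from lysate of transiently transfected AD293 cells, diluted to give 20% substrate conversion. Substrate was 50 nM FAM-cAMP with 1 uM cGMP activator in Tris pH 7.2/MgCl2 buffer, run 60 min at room temperature over 10-point 3-fold dilutions in 1% DMSO. Read-out was IMAP fluorescence polarization (mP) after ≥1 h binding.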

human PDE2A1 = human PDE2A1 (Homo sapiens (Human), UniProt O00408); assay: IMAP FP PDE selectivity panel, human PDE2A1; type: biochemical; conditions: Human PDE2, Lab B; read-out: Human PDE2 Ki (nM) - Lab B
Outline: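 GST-tagged human PDE2A1 expressed in insect cells, run at room temperature for 60 min with 50 nM FAM-cAMP containing 1000 nM cGMP, pH 7.2 Tris/MgCl2 buffer. IMAP fluorescence polarization read after binding step.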

human PDE2A1, sequence (O00408 other isoform, or with tags, fused parts or gaps): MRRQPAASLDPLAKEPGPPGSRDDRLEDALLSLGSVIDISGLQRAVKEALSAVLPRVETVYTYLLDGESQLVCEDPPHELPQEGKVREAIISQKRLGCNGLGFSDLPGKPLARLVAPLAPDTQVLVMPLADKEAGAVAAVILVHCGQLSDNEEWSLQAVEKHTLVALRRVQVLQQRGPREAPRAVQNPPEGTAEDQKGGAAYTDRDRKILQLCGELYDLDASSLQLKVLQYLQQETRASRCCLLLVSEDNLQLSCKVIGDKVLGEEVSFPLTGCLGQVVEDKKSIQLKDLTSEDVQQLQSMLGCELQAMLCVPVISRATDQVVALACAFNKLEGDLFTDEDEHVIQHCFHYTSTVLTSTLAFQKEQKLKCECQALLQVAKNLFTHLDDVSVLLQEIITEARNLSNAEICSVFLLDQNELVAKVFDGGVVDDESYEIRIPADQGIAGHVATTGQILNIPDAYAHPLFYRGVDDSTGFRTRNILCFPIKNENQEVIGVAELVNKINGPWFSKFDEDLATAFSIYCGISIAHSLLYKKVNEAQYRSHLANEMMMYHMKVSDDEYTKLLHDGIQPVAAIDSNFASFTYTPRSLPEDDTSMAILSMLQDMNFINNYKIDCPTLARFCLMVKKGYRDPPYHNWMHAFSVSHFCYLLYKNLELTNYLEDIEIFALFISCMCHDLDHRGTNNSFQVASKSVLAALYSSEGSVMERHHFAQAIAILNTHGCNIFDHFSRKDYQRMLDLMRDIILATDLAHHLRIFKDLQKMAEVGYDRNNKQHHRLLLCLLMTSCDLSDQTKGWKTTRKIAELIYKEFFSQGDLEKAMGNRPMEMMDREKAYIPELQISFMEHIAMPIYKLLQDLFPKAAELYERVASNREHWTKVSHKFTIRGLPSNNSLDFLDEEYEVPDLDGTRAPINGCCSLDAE
Rhesus PDE2A3, sequence (B3VTJ2 1-941): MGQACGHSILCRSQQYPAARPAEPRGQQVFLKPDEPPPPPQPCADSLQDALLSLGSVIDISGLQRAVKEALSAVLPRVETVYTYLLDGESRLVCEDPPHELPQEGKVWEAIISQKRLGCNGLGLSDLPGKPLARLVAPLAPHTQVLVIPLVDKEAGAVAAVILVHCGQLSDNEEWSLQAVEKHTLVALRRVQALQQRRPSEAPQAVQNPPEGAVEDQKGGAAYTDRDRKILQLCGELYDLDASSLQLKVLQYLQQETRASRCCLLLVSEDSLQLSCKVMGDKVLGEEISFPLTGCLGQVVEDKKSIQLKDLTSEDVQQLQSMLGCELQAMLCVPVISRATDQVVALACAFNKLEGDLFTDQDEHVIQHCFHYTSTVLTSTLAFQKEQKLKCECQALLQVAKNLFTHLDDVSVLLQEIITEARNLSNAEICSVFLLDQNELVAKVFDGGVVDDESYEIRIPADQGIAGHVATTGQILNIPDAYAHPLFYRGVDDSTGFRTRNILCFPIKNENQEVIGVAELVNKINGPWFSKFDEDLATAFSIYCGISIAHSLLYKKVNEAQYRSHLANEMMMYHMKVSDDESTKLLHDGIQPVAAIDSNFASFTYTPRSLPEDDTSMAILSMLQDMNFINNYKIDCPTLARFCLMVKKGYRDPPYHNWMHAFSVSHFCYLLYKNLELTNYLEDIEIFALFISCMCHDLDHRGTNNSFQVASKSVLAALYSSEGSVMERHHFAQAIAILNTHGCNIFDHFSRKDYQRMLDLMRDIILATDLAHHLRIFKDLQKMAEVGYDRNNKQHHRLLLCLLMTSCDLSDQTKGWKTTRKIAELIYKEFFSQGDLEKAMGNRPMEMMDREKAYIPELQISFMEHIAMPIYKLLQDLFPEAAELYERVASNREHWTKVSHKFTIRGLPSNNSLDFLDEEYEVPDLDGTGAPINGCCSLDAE

| Ki (Rhesus PDE2A3) [nM] | Ki (human PDE2A1) [nM] | Structure (SMILES) |
| --- | --- | --- |
| 1.2 | 1.2 | CC(C)(C)[C@@H](NC(=O)c1cc(=O)[nH]c(C2CC2)n1)c1ccc(OC(F)(F)F)c(F)c1 [Example 437, 2-cyclopropyl-N-{(1R)-1-[3-fluoro-4-(trifluoromethoxy)phenyl]-2,2-dimethylpropyl}-6-oxo-1,6-dihydropyrimidine-4-carboxamide] |
| 1.5 | 1.3 | CC(C)(C)[C@@H](NC(=O)c1cc(=O)[nH]c(C2CC2)n1)c1ccc(C(F)(F)F)c(F)c1 [Example 438, 2-cyclopropyl-N-{(1R)-1-[3-fluoro-4-(trifluoromethyl)phenyl]-2,2-dimethylpropyl}-6-oxo-1,6-dihydropyrimidine-4-carboxamide] |
| 1 | 1.3 | CC(C)(C)[C@@H](NC(=O)c1cc(=O)[nH]c(C2CC2)n1)c1ccc(SC(F)(F)F)cc1 [Example 439, 2-cyclopropyl-N-[(1R)-2,2-dimethyl-1-{4-[(trifluoromethyl)sulfanyl]phenyl}pro-pyl]-6-oxo-1,6-dihydropyrimidine-4-carboxamide] |
| 51 | 60 | C[C@@H](NC(=O)c1cc(=O)[nH]c(C2CC2)n1)c1cc(F)c(C(F)(F)F)cc1F [Example 440, 2-cyclopropyl-N-{(1R)-1-[2,5-difluoro-4-(trifluoromethyl)phenyl]ethyl}-6-oxo-1,6-dihydropyrimidine-4-carboxamide] |
| 3.8 | 6.4 | CC(C)(C)[C@@H](NC(=O)c1cc(=O)[nH]c(C2CC2)n1)c1ccc(CC(F)(F)F)cc1 [Example 441, 2-cyclopropyl-N-{(1R)-2,2-dimethyl-1-[4-(2,2,2-trifluoroethyl)phenyl]propyl}-6-oxo-1,6-dihydropyrimidine-4-carboxamide] |
| 2.1 | 1.7 | CC(C)(C)[C@@H](NC(=O)c1cc(=O)[nH]c(C2CC2)n1)c1ccc(C(F)(F)F)cc1F [Example 445, 2-cyclopropyl-N-{(1R)-1-[2-fluoro-4-(trifluoromethyl)phenyl]-2,2-dimethylpropyl}-6-oxo-1,6-dihydropyrimidine-4-carboxamide] |
| 1.3 | 1.4 | CC(C)(C)[C@@H](NC(=O)c1cc(=O)[nH]c(C2CC2)n1)c1ccc(C2CC2)cc1 [Example 447, 2-cyclopropyl-N-[(1R)-1-(4-cyclopropylphenyl)-2,2-dimethylpropyl]-6-oxo-1,6-dihydropyrimidine-4-carboxamide] |
| 1.2 | 0.84 | CC(C)(C)[C@@H](NC(=O)c1cc(=O)[nH]c(C2CC2)n1)c1ccc(OC(F)(F)F)cc1 [Example 463, 2-cyclopropyl-N-{(1R)-2,2-dimethyl-1-[4-(trifluoromethoxy)phenyl]propyl}-6-oxo-1,6-dihydropyrimidine-4-carboxamide] |
| 0.85 | 0.79 | COc1ccc(Cc2nc(C(=O)N[C@@H](c3ccc(C(F)(F)F)c(F)c3)C(C)(C)C)cc(=O)[nH]2)cc1 [Example 466, N-{(1R)-1-[3-fluoro-4-(trifluoromethyl)phenyl]-2,2-dimethylpropyl}-2-(4-methoxybenzyl)-6-oxo-1,6-dihydropyrimidine-4-carboxamide] |

More lines, now with the values behind:

| Structure (SMILES) | Ki (Rhesus PDE2A3) [nM] | Ki (human PDE2A1) [nM] |
| --- | --- | --- |
| CC1([C@@H](NC(=O)c2cc(=O)[nH]c(C3CC3)n2)c2ccc(OC(F)F)cc2)CC1 [Example 443, 2-cyclopropyl-N-[(1R)-[4-(difluoromethoxy)phenyl](1-methylcyclopropyl)methyl]-6-oxo-1,6-dihydropyrimidine-4-carboxamide] | 8 | 7 |
| CC(C)c1ccc([C@H](NC(=O)c2cc(=O)[nH]c(C3CC3)n2)C2(C)CC2)cc1 [Example 444, 2-cyclopropyl-N-{(R)-(1-methylcyclopropyl)[4-(1-methylethyl)phenyl]methyl}-6-oxo-1,6-dihydropyrimidine-4-carboxamide] | 2 | 2.5 |
| O=C(N[C@@H](c1ccc(OC(F)F)cc1)C1CC1)c1cc(=O)[nH]c(C2CC2)n1 [Example 446, 2-cyclopropyl-N-{(R)-cyclopropyl[4-(difluoromethoxy)phenyl]methyl}-6-oxo-1,6-dihydropyrimidine-4-carboxamide] | 43 | 42 |
| O=C(N[C@@H](c1ccc(OC(F)F)cc1)C1CC1)c1cc(=O)[nH]c(-c2ccccc2)n1 [Example 448, N-{(R)-cyclopropyl[4-(difluoromethoxy)phenyl]methyl}-6-oxo-2-phenyl-1,6-dihydropyrimidine-4-carboxamide] | 13 | 12 |
| CC(C)(C)[C@@H](NC(=O)c1cc(=O)[nH]c(-c2ccccc2)n1)c1ccc(OC(F)F)cc1 [Example 449, N-{(1R)-1-[4-(difluoromethoxy)phenyl]-2,2-dimethylpropyl}-6-oxo-2-phenyl-1,6-dihydropyrimidine-4-carboxamide] | 2.6 | 1.8 |
| CC(C)(C)[C@@H](NC(=O)c1cc(=O)[nH]c(-c2ncccn2)n1)c1ccc(OC(F)F)cc1 [Example 450, N-{(1R)-1-[4-(difluoromethoxy)phenyl]-2,2-dimethylpropyl}-6-oxo-1,6-dihydro-2,2′-bipyrimidine-4-carboxamide] | 23 | 21 |
| CC(C)(C)[C@@H](NC(=O)c1cc(=O)[nH]c(-c2ncccn2)n1)c1ccc(C2CC2)c(F)c1 [Example 451, N-[(1R)-1-(4-cyclopropyl-3-fluorophenyl)-2,2-dimethylpropyl]-6-oxo-1,6-dihydro-2,2′-bipyrimidine-4-carboxamide] | 6.7 | 4.8 |
| O=C(N[C@@H](c1ccc(SC(F)(F)F)c(F)c1)C1CC1)c1cc(=O)[nH]c(-c2ncccn2)n1 [Example 452, N-[(R)-cyclopropyl{3-fluoro-4-[(trifluoromethyl)sulfanyl]phenyl}meth-yl]-6-oxo-1,6-dihydro-2,2′-bipyrimidine-4-carboxamide] | 9.8 | 9.3 |
| O=C(N[C@@H](c1ccc(C2CC2)cc1)C1CC1)c1cc(=O)[nH]c(-c2ncccn2)n1 [Example 453, N-[(R)-cyclopropyl(4-cyclopropylphenyl)methyl]-6-oxo-1,6-dihydro-2,2′-bipyrimidine-4-carboxamide] | 7.3 | 7.6 |
| CC1([C@@H](NC(=O)c2cc(=O)[nH]c(C3CC3)n2)c2ccc(S(F)(F)(F)(F)F)cc2)CC1 [Example 454, 2-cyclopropyl-N-{(R)-(1-methylcyclopropyl)[4-(pentafluoro-λ^6-sulfanyl)phenyl]methyl}-6-oxo-1,6-dihydropyrimidine-4-carboxamide] | 3.8 | 4 |
| COc1ccc(Cc2nc(C(=O)N[C@@H](c3ccc(C(F)(F)F)cc3)C(C)(C)C)cc(=O)[nH]2)cc1 [Example 455, N-{(1R)-2,2-dimethyl-1-[4-(trifluoromethyl)phenyl]propyl}-2-(4-methoxybenzyl)-6-oxo-1,6-dihydropyrimidine-4-carboxamide] | 0.68 | 0.6 |
| COc1ccc(Cc2nc(C(=O)N[C@@H](c3ccc(C(F)(F)F)cc3)C(C)(C)C)cc(=O)[nH]2)cc1F [Example 457, N-{(1R)-2,2-dimethyl-1-[4-(trifluoromethyl)phenyl]propyl}-2-(3-fluoro-4-methoxybenzyl)-6-oxo-1,6-dihydropyrimidine-4-carboxamide] | 0.68 | 0.64 |
| CC(C)(C)[C@@H](NC(=O)c1cc(=O)[nH]c(-c2ncccn2)n1)c1ccc(OC(F)(F)F)cc1 [Example 461, N-{(1R)-2,2-dimethyl-1-[4-(trifluoromethoxy)phenyl]propyl}-6-oxo-1,6-dihydro-2,2′-bipyrimidine-4-carboxamide] | 7.5 | 7.8 |
| CC(C)(C)[C@@H](NC(=O)c1cc(=O)[nH]c(-c2ccccc2)n1)c1ccc(OC(F)(F)F)cc1 [Example 462, N-{(1R)-2,2-dimethyl-1-[4-(trifluoromethoxy)phenyl]propyl}-6-oxo-2-phenyl-1,6-dihydropyrimidine-4-carboxamide] | 1.4 | 1.5 |
| COc1ccc(Cc2nc(C(=O)N[C@@H](c3ccc(OC(F)(F)F)c(F)c3)C(C)(C)C)cc(=O)[nH]2)cc1 [Example 464, N-{(1R)-1-[3-fluoro-4-(trifluoromethoxy)phenyl]-2,2-dimethylpropyl}-2-(4-methoxybenzyl)-6-oxo-1,6-dihydropyrimidine-4-carboxamide] | 0.6 | 0.69 |
| COc1ccc(Cc2nc(C(=O)N[C@@H](c3ccc(SC(F)(F)F)cc3)C(C)(C)C)cc(=O)[nH]2)cc1 [Example 465, N-[(1R)-2,2-dimethyl-1-{4-[(trifluoromethyl)sulfanyl]phenyl}propyl]-2-(4-methoxybenzyl)-6-oxo-1,6-dihydropyrimidine-4-carboxamide] | 0.62 | 0.62 |
| COc1ccc(Cc2nc(C(=O)N[C@@H](c3ccc(OC(F)(F)F)cc3)C(C)(C)C)cc(=O)[nH]2)cc1 [Example 467, N-{(1R)-2,2-dimethyl-1-[4-(trifluoromethoxy)phenyl]propyl}-2-(4-methoxybenzyl)-6-oxo-1,6-dihydropyrimidine-4-carboxamide] | 0.62 | 0.49 |
| COc1ccc(Cc2nc(C(=O)N[C@@H](c3ccc(S(F)(F)(F)(F)F)cc3)C3CC3)cc(=O)[nH]2)cc1 [Example 468, N-{(R)-cyclopropyl[4-(pentafluoro-λ^6-sulfanyl)phenyl]methyl}-2-(4-methoxybenzyl)-6-oxo-1,6-dihydropyrimidine-4-carboxamide] | 2.8 | 2.3 |
